Experimental data from ChEMBL document CHEMBL5380875, “Discovery of a Potent and Oral Available Complex I OXPHOS Inhibitor That Abrogates Tumor Growth and Circumvents MEKi Resistance” (J Med Chem, 2023).
Active and inactive are the calls of the source. No cut-off for these calls is given here.

Experiments:
NCI-H460 [1] = assay: Inhibition of mitochondrial complex I NADH-ubiquinone oxidoreductase in human NCI-H460 cells assessed as reduction in NAD+/NADH ratio at 1 uM incubated for 12 hrs by WST-8 method relative to control; assay type: cell-based
NCI-H460 [2] = assay: Antiproliferative activity against human NCI-H460 cells with high-OXPHOS assessed as reduction in cell viability incubated for 5 days by CellTiter 96 cell proliferation assay; assay type: functional, cell-based; conditions: NCI-H460, 120 h
NCI-H441 [3] = assay: Antiproliferative activity against human NCI-H441 cells with high-OXPHOS assessed as reduction in cell viability incubated for 5 days by CellTiter 96 cell proliferation assay; assay type: functional, cell-based; conditions: NCI-H441, 120 h
NCI-H460 [4] = assay: Inhibition of colony formation in human NCI-H460 cells with high-OXPHOS incubated for 7 days by crystal violet staining based analysis; assay type: functional, cell-based; conditions: dose 250-1000 nM, time 7.0 day
NCI-H441 [5] = assay: Inhibition of colony formation in human NCI-H441 cells with high-OXPHOS incubated for 7 days by crystal violet staining based analysis; assay type: functional, cell-based; conditions: dose 250-1000 nM, time 7.0 day
Cytochrome P450 1A2 = target: T1, Cytochrome P450 1A2 (Homo sapiens, UniProt P05177); assay: Inhibition of CYP1A2 in human liver microsomes; assay type: ADME, Microsome
T1 sequence (P05177 whole entry): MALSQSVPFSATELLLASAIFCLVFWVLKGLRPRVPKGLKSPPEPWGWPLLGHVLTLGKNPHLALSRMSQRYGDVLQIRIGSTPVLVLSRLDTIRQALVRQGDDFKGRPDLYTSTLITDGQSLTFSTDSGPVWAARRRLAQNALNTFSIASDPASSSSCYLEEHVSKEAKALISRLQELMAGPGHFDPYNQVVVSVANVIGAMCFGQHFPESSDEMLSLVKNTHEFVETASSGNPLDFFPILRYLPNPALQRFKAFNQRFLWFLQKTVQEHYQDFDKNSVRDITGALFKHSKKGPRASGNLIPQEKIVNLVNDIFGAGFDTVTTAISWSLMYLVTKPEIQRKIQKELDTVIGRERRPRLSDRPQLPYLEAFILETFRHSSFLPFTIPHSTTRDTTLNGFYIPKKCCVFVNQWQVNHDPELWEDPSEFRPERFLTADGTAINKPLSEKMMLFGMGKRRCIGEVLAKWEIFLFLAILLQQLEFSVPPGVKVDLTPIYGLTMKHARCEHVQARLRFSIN

Cytochrome P450 2C9 = Cytochrome P450 2C9 (Homo sapiens, UniProt P11712); assay: Inhibition of CYP2C9 in human liver microsomes; assay type: ADME, Microsome
Chain of Cytochrome P450 2C9 (P11712 whole entry): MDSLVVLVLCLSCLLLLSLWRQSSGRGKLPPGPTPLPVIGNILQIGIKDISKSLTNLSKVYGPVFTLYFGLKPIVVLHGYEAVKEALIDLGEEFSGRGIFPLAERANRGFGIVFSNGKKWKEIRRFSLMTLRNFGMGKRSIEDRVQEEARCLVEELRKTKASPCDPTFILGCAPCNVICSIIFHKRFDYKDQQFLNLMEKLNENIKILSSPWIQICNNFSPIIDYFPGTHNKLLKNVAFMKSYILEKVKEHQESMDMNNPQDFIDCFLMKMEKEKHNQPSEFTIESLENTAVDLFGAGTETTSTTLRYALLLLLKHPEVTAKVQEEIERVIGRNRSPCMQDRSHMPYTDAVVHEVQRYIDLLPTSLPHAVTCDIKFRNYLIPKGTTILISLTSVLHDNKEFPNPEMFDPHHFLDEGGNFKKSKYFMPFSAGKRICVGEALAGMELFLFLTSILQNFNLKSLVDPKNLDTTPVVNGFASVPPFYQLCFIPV

Cytochrome P450 3A4 = Cytochrome P450 3A4 (Homo sapiens, UniProt P08684); assay: Inhibition of CYP3A4 in human liver microsomes using midazolam as substrate; assay type: ADME, Microsome
Chain of Cytochrome P450 3A4 (P08684 whole entry): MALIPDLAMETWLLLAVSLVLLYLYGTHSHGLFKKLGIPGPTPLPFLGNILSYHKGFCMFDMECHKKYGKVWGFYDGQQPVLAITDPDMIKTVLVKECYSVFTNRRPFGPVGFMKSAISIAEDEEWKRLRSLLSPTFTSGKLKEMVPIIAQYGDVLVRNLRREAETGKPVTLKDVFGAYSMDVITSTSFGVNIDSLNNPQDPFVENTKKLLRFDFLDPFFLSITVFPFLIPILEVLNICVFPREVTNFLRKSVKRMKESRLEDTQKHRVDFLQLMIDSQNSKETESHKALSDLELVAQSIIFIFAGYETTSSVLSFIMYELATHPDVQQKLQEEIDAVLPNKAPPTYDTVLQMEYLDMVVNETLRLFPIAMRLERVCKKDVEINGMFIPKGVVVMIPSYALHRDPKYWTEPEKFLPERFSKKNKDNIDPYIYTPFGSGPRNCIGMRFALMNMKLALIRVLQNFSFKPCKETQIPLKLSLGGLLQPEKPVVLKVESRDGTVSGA

[6] = Tmax in ICR mouse at 10 mg/kg, po measured for 24 hrs by LC-MS/MS analysis; assay type: ADME, organism-based; conditions: in vivo
[7] = Cmax in ICR mouse at 10 mg/kg, po measured for 24 hrs by LC-MS/MS analysis; assay type: ADME, organism-based; design: time 24 hrs, dose 10 mg/kg, route po; conditions: in vivo
[8] = AUC (0 to 24 hrs) in ICR mouse at 1 mg/kg, iv measured for 24 hrs by LC-MS/MS analysis; assay type: ADME, organism-based; design: time 24 hrs, dose 1 mg/kg, route iv; conditions: in vivo
[9] = AUC (0 to infinity) in ICR mouse at 1 mg/kg, iv measured for 24 hrs by LC-MS/MS analysis; assay type: ADME, organism-based; design: dose 1 mg/kg, time 24 hrs, route iv; conditions: in vivo
[10] = Clearance in ICR mouse at 1 mg/kg, iv measured for 24 hrs by LC-MS/MS analysis; assay type: ADME, organism-based; conditions: in vivo
[11] = MRT (0 to 24 hrs) in ICR mouse at 1 mg/kg, iv measured for 24 hrs by LC-MS/MS analysis; assay type: ADME, organism-based; conditions: in vivo
[12] = MRT (0 to 24 hrs) in ICR mouse at 10 mg/kg, po measured for 24 hrs by LC-MS/MS analysis; assay type: ADME, organism-based; conditions: in vivo
[13] = Half life in ICR mouse at 10 mg/kg, po measured for 24 hrs by LC-MS/MS analysis; assay type: ADME, organism-based; conditions: in vivo
[14] = Oral bioavailability in ICR mouse at 10 mg/kg measured for 24 hrs by LC-MS/MS analysis; assay type: ADME, organism-based; conditions: in vivo
NCI-H460 [15] = assay: Antitumor activity against human NCI-H460 cells with high-OXPHOS xenografted in mouse assessed as tumor growth inhibition at 30 mg/kg, po bid administered for 18 days and measured every 3 days by electronic caliper analysis; assay type: functional, organism-based; conditions: time 18.0 day
[16] = Toxicity in mouse xenografted with human NCI-H460 cells with high-OXPHOS assessed as reduction in serum ALT level at 30 mg/kg, po bid administered for 18 days; assay type: organism-based; conditions: in vivo, 432 h, time 18 day
[17] = Toxicity in mouse xenografted with human NCI-H460 cells with high-OXPHOS assessed as pathological changes in heart at 30 mg/kg, po bid administered for 18 days by H and E staining based analysis; assay type: organism-based; conditions: in vivo, 432 h, time 18 day
[18] = Toxicity in mouse xenografted with human NCI-H460 cells with high-OXPHOS assessed as pathological changes in liver at 30 mg/kg, po bid administered for 18 days by H and E staining based analysis; assay type: organism-based; conditions: in vivo, 432 h, time 18 day
[19] = Toxicity in mouse xenografted with human NCI-H460 cells with high-OXPHOS assessed as pathological changes in spleen at 30 mg/kg, po bid administered for 18 days by H and E staining based analysis; assay type: organism-based; conditions: in vivo, 432 h, time 18 day
A549 [20] = assay: Antiproliferative activity against human Trametinib-resistant A549 cells with high-OXPHOS assessed as reduction in cell viability incubated for 5 days by CellTiter 96 cell proliferation assay; assay type: functional, cell-based; conditions: A549, 120 h
A549 [21] = assay: Inhibition of colony formation in human Trametinib-resistant A549 cells with high-OXPHOS incubated for 7 days by crystal violet staining based analysis; assay type: functional, cell-based; conditions: dose 25-100 nM, time 7.0 day
[22] = Cytotoxicity against human HPNE cells assessed as reduction in cell viability incubated for 5 days by CellTiter 96 cell proliferation assay; assay type: toxicity, cell-based
[23] = Cytotoxicity against human MRC5 cells assessed as reduction in cell viability incubated for 5 days by CellTiter 96 cell proliferation assay; assay type: toxicity, cell-based
NCI-H460 [24] = assay: Induction of apoptosis in human NCI-H460 cells with high-OXPHOS assessed as early apoptotic cells at 30 nM incubated for 48 hrs by Annexin V-FITC/propidium iodide staining based flow cytometry analysis (reference value: 3.55%); assay type: functional
NCI-H460 [25] = assay: Induction of apoptosis in human NCI-H460 cells with high-OXPHOS assessed as late apoptotic cells at 30 nM incubated for 48 hrs by Annexin V-FITC/propidium iodide staining based flow cytometry analysis (reference value: 12.8%); assay type: functional
NCI-H460 [26] = assay: Potentiation of trametinib-induced cytotoxicity against human NCI-H460 cells with high-OXPHOS harboring KRAS Q61H mutant assessed as reduction in cell viability at 10 to 20 uM incubated for 72 hrs by CellTiter 96 cell proliferation assay; assay type: functional, cell-based; conditions: dose 10-20 µM
A549 [27] = assay: Inhibition of colony formation in human Trametinib-resistant A549 cells with high-OXPHOS harboring KRAS G12S mutant incubated for 10 to 14 days in presence of trametinib by crystal violet staining based analysis; assay type: functional, cell-based; conditions: time 10-14 day
NCI-H460 [28] = assay: Induction of apoptosis in human NCI-H460 cells with high-OXPHOS harboring KRAS Q61H mutant assessed as early apoptotic cells at 20 nM incubated for 72 hrs in presence of trametinib by Annexin V-FITC/propidium iodide staining based flow cytometry analysis (reference value: 1.95%); assay type: functional

- IC50 (NCI-H460 [2]): 0.005 µM
- IC50 (NCI-H441 [3]): 0.0297 µM
- IC50 (Cytochrome P450 1A2): > 50 µM
- IC50 (Cytochrome P450 2C9): 14.6 µM
- IC50 (Cytochrome P450 3A4): > 50 µM
- Tmax [6]: 1 h
- Cmax [7]: 618 ng/mL
- AUC(0-t) at 24 h [8]: 337 ng·h/mL
- AUC(0-inf) [9]: 359 ng·h/mL
- clearance [10]: 46.6 mL/min/kg
- MRT last at 24 h [11]: 1.5 h
- MRT last at 24 h [12]: 3 h
- half-life [13]: 2.5 h
- bioavailability [14]: 64.3%
- IC50 (A549 [20]): 0.0151 µM
SMILES: Cc1c(C(=O)N2CCN(Cc3ccc(OCC(F)(F)F)cc3)CC2)nnn1Cc1ccc(C(=O)Nc2ccc(C(F)(F)F)cc2)nc1
- inhibition (NCI-H460 [1]): 87.5%
- inhibition (NCI-H460 [4]): Dose-Dependent Effect
- inhibition (NCI-H441 [5]): Dose-Dependent Effect
- inhibition (NCI-H460 [15]): Active
- Activity [16]: Non-Toxic
- Activity [17]: Non-Toxic
- Activity [18]: Non-Toxic
- Activity [19]: Non-Toxic
- inhibition (A549 [21]): Dose-Dependent Effect
- IC50 at 5 days [22]: > 10 µM
- IC50 at 5 days [23]: > 10 µM
- Activity (NCI-H460 [24]): 7.08%
- Activity (NCI-H460 [25]): 37.8%
- Activity (NCI-H460 [26]): Active
- inhibition (A549 [27]): Active
- Activity (NCI-H460 [28]): 26.2%
